Patent US9464082B2, “Aryl and arylalkyl substituted pyrazolyl and pyrimidinyl tricyclic enones as antioxidant inflammation modulators” (AbbVie Inc., priority 2014, dated 2016)

Tested on: IFNγ-Induced NO Production
Assay: Nitric Oxide Suppression Assay (Suppression of IFNγ-Induced NO Production)
Type: cell-based
Details: RAW264.7; RAW 264.7 mouse macrophage cells; 2 hour pre-treatment with compound (3 μM to 0.3 nM, 10 point curve); 20 ng/mL interferon gamma, ~18 hour; Griess detection; n=2-3 in duplicates
In short: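 Mouse RAW 264.7 macrophages pre-treated 2 h at 37 °C with compound (3 μM to 0.3 nM, 10 points; DMSO ≤1%), then stimulated with 20 ng/mL interferon gamma for ~18 h. Supernatant nitrite measured by Griess reaction, absorbance 520–550 nm. IC50 from curve fit of signal normalised to IFNγ alone, mean n=2-3 in duplicate.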

SMILES	IC50
Cc1nc(-c2cccc(O)c2)c2c(n1)[C@@]1(c3ccccc3)C=C(C#N)C(=O)[C@@H](C)[C@@H]1CC2 [Example 109, (6aS,7S,10aR)-4-(3-hydroxyphenyl)-2,7-dimethyl-8-oxo-10a-phenyl-5,6,6a,7,8,10a-hexahydrobenzo[h]quinazoline-9-carbonitrile]	2.87 nM
Cc1nc(-c2cccc(CCCO)c2)c2c(n1)[C@@]1(c3ccccc3)C=C(C#N)C(=O)[C@@H](C)[C@@H]1CC2 [Example 110, (6aS,7S,10aR)-4-[3-(3-hydroxypropyl)phenyl]-2,7-dimethyl-8-oxo-10a-phenyl-5,6,6a,7,8,10a-hexahydrobenzo[h]quinazoline-9-carbonitrile]	1.55 nM
C[C@@H]1C(=O)C(C#N)=C[C@]2(c3ccccc3)c3nc(-c4cc(Br)ccc4O)ncc3CC[C@@H]12 [Example 111, (6aS,7S,10aR)-2-(5-bromo-2-hydroxyphenyl)-7-methyl-8-oxo-10a-phenyl-5,6,6a,7,8,10a-hexahydrobenzo[h]quinazoline-9-carbonitrile]	12.3 nM
C[C@@H]1C(=O)C(C#N)=C[C@]2(c3ccccc3)c3n[nH]c(-c4ccc(NS(C)(=O)=O)cc4)c3CC[C@@H]12 [Example 112, N-{4-[(5aS,6S,9aR)-8-cyano-6-methyl-7-oxo-9a-phenyl-4,5,5a,6,7,9a-hexahydro-2H-benzo[g]indazol-3-yl]phenyl}methanesulfonamide]	66.4 nM
C[C@@H]1C(=O)C(C#N)=C[C@]2(c3ccccc3)c3n[nH]c(-c4cccc(NS(C)(=O)=O)c4)c3CCC12 (stereo partly drawn) [Example 113, N-{3-[(6S,9aR)-8-cyano-6-methyl-7-oxo-9a-phenyl-4,5,5a,6,7,9a-hexahydro-2H-benzo[g]indazol-3-yl]phenyl}methanesulfonamide]	43 nM
C[C@@H]1C(=O)C(C#N)=C[C@]2(c3ccccc3)c3nc(-c4ccc(O)cc4)ncc3CC[C@@H]12 [Example 114, (6aS,7S,10aR)-2-(4-hydroxyphenyl)-7-methyl-8-oxo-10a-phenyl-5,6,6a,7,8,10a-hexahydrobenzo[h]quinazoline-9-carbonitrile]	5 nM
C[C@@H]1C(=O)C(C#N)=C[C@]2(c3ccccc3)c3n[nH]c(-c4ccc(CCO)cc4)c3CC[C@@H]12 [Example 115, (5aS,6S,9aR)-3-[4-(2-hydroxyethyl)phenyl]-6-methyl-7-oxo-9a-phenyl-4,5,5a,6,7,9a-hexahydro-2H-benzo[g]indazole-8-carbonitrile]	23.6 nM
C[C@@H]1C(=O)C(C#N)=C[C@]2(c3ccccc3)c3n[nH]c(-c4cccc(CCO)c4)c3CC[C@@H]12 [Example 116, (5aS,6S,9aR)-3-[3-(2-hydroxyethyl)phenyl]-6-methyl-7-oxo-9a-phenyl-4,5,5a,6,7,9a-hexahydro-2H-benzo[g]indazole-8-carbonitrile]	9.25 nM
C[C@@H]1C(=O)C(C#N)=C[C@]2(c3ccccc3)c3n[nH]c(-c4cnn(CCO)c4)c3CC[C@@H]12 [Example 117, (5aS,6S,9aR)-3-[1-(2-hydroxyethyl)-1H-pyrazol-4-yl]-6-methyl-7-oxo-9a-phenyl-4,5,5a,6,7,9a-hexahydro-2H-benzo[g]indazole-8-carbonitrile]	17.4 nM
Cc1nc(-c2cccc(-c3ccc(N)cc3)c2)c2c(n1)[C@@]1(c3ccccc3)C=C(C#N)C(=O)[C@@H](C)[C@@H]1CC2 [Example 118, (6aS,7S,10aR)-4-(4′-aminobiphenyl-3-yl)-2,7-dimethyl-8-oxo-10a-phenyl-5,6,6a,7,8,10a-hexahydrobenzo[h]quinazoline-9-carbonitrile]	4.62 nM
Cc1nc(-c2cccc(-c3ccc(O)cc3)c2)c2c(n1)[C@@]1(c3ccccc3)C=C(C#N)C(=O)[C@@H](C)[C@@H]1CC2 [Example 119, (6aS,7S,10aR)-4-(4′-hydroxybiphenyl-3-yl)-2,7-dimethyl-8-oxo-10a-phenyl-5,6,6a,7,8,10a-hexahydrobenzo[h]quinazoline-9-carbonitrile]	6.5 nM
C[C@@H]1C(=O)C(C#N)=C[C@]2(c3ccc(OCc4ccccc4)cc3)c3ncncc3CC[C@@H]12 [Example 120, (6aS,7S,10aR)-10a-[4-(benzyloxy)phenyl]-7-methyl-8-oxo-5,6,6a,7,8,10a-hexahydrobenzo[h]quinazoline-9-carbonitrile]	5.44 nM
C[C@@H]1C(=O)C(C#N)=C[C@]2(c3ccc(O)cc3)c3ncncc3CC[C@@H]12 [Example 121, (6aS,7S,10aR)-10a-(4-hydroxyphenyl)-7-methyl-8-oxo-5,6,6a,7,8,10a-hexahydrobenzo[h]quinazoline-9-carbonitrile]	8.47 nM
Cc1nc(-c2ccc(-c3ccncc3)cc2)c2c(n1)[C@@]1(c3ccccc3)C=C(C#N)C(=O)[C@@H](C)[C@@H]1CC2 [Example 122, (6aS,7S,10aR)-2,7-dimethyl-8-oxo-10a-phenyl-4-[4-(pyridin-4-yl)phenyl]-5,6,6a,7,8,10a-hexahydrobenzo[h]quinazoline-9-carbonitrile]	12.7 nM
C[C@@H]1C(=O)C(C#N)=C[C@]2(c3ccccc3)c3n[nH]c(-c4cccc(CCCO)c4)c3CC[C@@H]12 [Example 123, (5aS,6S,9aR)-3-[3-(3-hydroxypropyl)phenyl]-6-methyl-7-oxo-9a-phenyl-4,5,5a,6,7,9a-hexahydro-2H-benzo[g]indazole-8-carbonitrile]	7.72 nM
Cc1nc(-c2cccc(-c3cccc(NS(C)(=O)=O)c3)c2)c2c(n1)[C@@]1(c3ccccc3)C=C(C#N)C(=O)[C@@H](C)[C@@H]1CC2 [Example 124, N-{3′-[(6aS,7S,10aR)-9-cyano-2,7-dimethyl-8-oxo-10a-phenyl-5,6,6a,7,8,10a-hexahydrobenzo[h]quinazolin-4-yl]biphenyl-3-yl}methanesulfonamide]	1.35 nM
CC(=O)OCCCc1cccc(-c2nc(C)nc3c2CC[C@H]2[C@H](C)C(=O)C(C#N)=C[C@]32c2ccccc2)c1 [Example 125, 3-{3-[(6aS,7S,10aR)-9-cyano-2,7-dimethyl-8-oxo-10a-phenyl-5,6,6a,7,8,10a-hexahydrobenzo[h]quinazolin-4-yl]phenyl}propyl acetate]	4.69 nM
C[C@@H]1C(=O)C(C#N)=C[C@]2(c3ccccc3)c3n[nH]c(-c4cncc(CO)c4)c3CC[C@@H]12 [Example 126, (5aS,6S,9aR)-3-[5-(hydroxymethyl)pyridin-3-yl]-6-methyl-7-oxo-9a-phenyl-4,5,5a,6,7,9a-hexahydro-2H-benzo[g]indazole-8-carbonitrile]	9.67 nM
Cc1nc(-c2cnn(CCO)c2)c2c(n1)[C@@]1(c3ccccc3)C=C(C#N)C(=O)[C@@H](C)[C@@H]1CC2 [Example 127, (6aS,7S,10aR)-4-[1-(2-hydroxyethyl)-1H-pyrazol-4-yl]-2,7-dimethyl-8-oxo-10a-phenyl-5,6,6a,7,8,10a-hexahydrobenzo[h]quinazoline-9-carbonitrile]	2.27 nM
C[C@@H]1C(=O)C(C#N)=C[C@]2(c3cccc(OCc4ccccc4)c3)c3ncncc3CC[C@@H]12 [Example 128, (6aS,7S,10aR)-10a-[3-(benzyloxy)phenyl]-7-methyl-8-oxo-5,6,6a,7,8,10a-hexahydrobenzo[h]quinazoline-9-carbonitrile]	7.82 nM
Cc1nc(-c2ccc(-c3cncnc3)cc2)c2c(n1)[C@@]1(c3ccccc3)C=C(C#N)C(=O)[C@@H](C)[C@@H]1CC2 [Example 129, (6aS,7S,10aR)-2,7-dimethyl-8-oxo-10a-phenyl-4-[4-(pyrimidin-5-yl)phenyl]-5,6,6a,7,8,10a-hexahydrobenzo[h]quinazoline-9-carbonitrile]	13 nM
Cc1nc(-c2cncnc2)c2c(n1)[C@@]1(c3ccccc3)C=C(C(N)=O)C(=O)[C@@H](C)[C@@H]1CC2 [Example 130, (6aS,7S,10aR)-2,7-dimethyl-8-oxo-10a-phenyl-4-(pyrimidin-5-yl)-5,6,6a,7,8,10a-hexahydrobenzo[h]quinazoline-9-carboxamide]	> 3000 nM
C[C@@H]1C(=O)C(C(N)=O)=C[C@]2(c3ccccc3)c3ncncc3CC[C@@H]12 [Example 131, (6aS,7S,10aR)-7-methyl-8-oxo-10a-phenyl-5,6,6a,7,8,10a-hexahydrobenzo[h]quinazoline-9-carboxamide]	1390 nM
Cc1nc(-c2cnc(O)c(Br)c2)c2c(n1)[C@@]1(c3ccccc3)C=C(C#N)C(=O)[C@@H](C)[C@@H]1CC2 [Example 132, (6aS,7S,10aR)-4-(5-bromo-6-hydroxypyridin-3-yl)-2,7-dimethyl-8-oxo-10a-phenyl-5,6,6a,7,8,10a-hexahydrobenzo[h]quinazoline-9-carbonitrile]	387 nM
Cc1nc(-c2ccc(O)nc2)c2c(n1)[C@@]1(c3ccccc3)C=C(C#N)C(=O)[C@@H](C)[C@@H]1CC2 [Example 133, (6aS,7S,10aR)-4-(6-hydroxypyridin-3-yl)-2,7-dimethyl-8-oxo-10a-phenyl-5,6,6a,7,8,10a-hexahydrobenzo[h]quinazoline-9-carbonitrile]	311 nM
COC(=O)c1ccc(-c2cccc(-c3nc(C)nc4c3CC[C@H]3[C@H](C)C(=O)C(C#N)=C[C@]43c3ccccc3)c2)cc1 [Example 134, methyl 3′-[(6aS,7S,10aR)-9-cyano-2,7-dimethyl-8-oxo-10a-phenyl-5,6,6a,7,8,10a-hexahydrobenzo[h]quinazolin-4-yl]biphenyl-4-carboxylate]	6.9 nM
Cc1nc(-c2cccc(-c3ccc(C(N)=O)cc3)c2)c2c(n1)[C@@]1(c3ccccc3)C=C(C#N)C(=O)[C@@H](C)[C@@H]1CC2 [Example 135, 3′-[(6aS,7S,10aR)-9-cyano-2,7-dimethyl-8-oxo-10a-phenyl-5,6,6a,7,8,10a-hexahydrobenzo[h]quinazolin-4-yl]biphenyl-4-carboxamide]	8.22 nM
C[C@@H]1C(=O)C(C#N)=C[C@]2(c3ccccc3)c3nc(-c4ccc(C(N)=O)cc4)ncc3CC[C@@H]12 [Example 136, 4-[(6aS,7S,10aR)-9-cyano-7-methyl-8-oxo-10a-phenyl-5,6,6a,7,8,10a-hexahydrobenzo[h]quinazolin-2-yl]benzamide]	3.37 nM
